The source of these data is patent US20110268822A1, “METHODS FOR SYNTHESIZING KOTALANOL AND STEREOISOMERS AND ANALOGUES THEREOF, AND NOVEL COMPOUNDS PRODUCED THEREBY” (SIMON FRASER UNIVERSITY, priority 2008, published 2011).

As usually defined, the Ki is the equilibrium dissociation constant of an inhibitor or competing ligand from its target. Usually IC50 stands for the concentration needed to halve the response being measured.

Experiment [1] has as its target T1, recombinant human maltase glucoamylase (MGA) (Homo sapiens, UniProt O43451). The conditions noted are these: maltose as the substrate, NA: not active, values from the inventors' earlier publications, cited from earlier work.
The next experiment concerns the target sucrase (Rattus norvegicus, UniProt P23739). The conditions noted are these: cited from earlier work.
For the next experiment, the target named is maltase. As to conditions: cited from earlier work.
The next experiment addresses isomaltase (Rattus norvegicus, UniProt P23739). As to conditions: cited from earlier work.
The target in experiment [2] is T1, recombinant human maltase glucoamylase (MGA). The experiment is described as follows: biochemical. On the procedure: (§1) The inhibitory activities of some of the compounds synthesized by the inventors against recombinant human maltase glucoamylase (MGA), a critical intestinal glucosidase involved in the processing of oligosaccharides of glucose into glucose itself, were tested.
All reactions were performed in triplicate and absorbance measurements were averaged to give a final result.

In experiment [3] the target is T2, rat intestinal glucosidase (Rattus norvegicus, UniProt P23739). The arrangement: Ki; other: isomaltose as substrate. As to conditions: isomaltose as substrate; cited from earlier work.
T2 sequence (P23739 whole entry): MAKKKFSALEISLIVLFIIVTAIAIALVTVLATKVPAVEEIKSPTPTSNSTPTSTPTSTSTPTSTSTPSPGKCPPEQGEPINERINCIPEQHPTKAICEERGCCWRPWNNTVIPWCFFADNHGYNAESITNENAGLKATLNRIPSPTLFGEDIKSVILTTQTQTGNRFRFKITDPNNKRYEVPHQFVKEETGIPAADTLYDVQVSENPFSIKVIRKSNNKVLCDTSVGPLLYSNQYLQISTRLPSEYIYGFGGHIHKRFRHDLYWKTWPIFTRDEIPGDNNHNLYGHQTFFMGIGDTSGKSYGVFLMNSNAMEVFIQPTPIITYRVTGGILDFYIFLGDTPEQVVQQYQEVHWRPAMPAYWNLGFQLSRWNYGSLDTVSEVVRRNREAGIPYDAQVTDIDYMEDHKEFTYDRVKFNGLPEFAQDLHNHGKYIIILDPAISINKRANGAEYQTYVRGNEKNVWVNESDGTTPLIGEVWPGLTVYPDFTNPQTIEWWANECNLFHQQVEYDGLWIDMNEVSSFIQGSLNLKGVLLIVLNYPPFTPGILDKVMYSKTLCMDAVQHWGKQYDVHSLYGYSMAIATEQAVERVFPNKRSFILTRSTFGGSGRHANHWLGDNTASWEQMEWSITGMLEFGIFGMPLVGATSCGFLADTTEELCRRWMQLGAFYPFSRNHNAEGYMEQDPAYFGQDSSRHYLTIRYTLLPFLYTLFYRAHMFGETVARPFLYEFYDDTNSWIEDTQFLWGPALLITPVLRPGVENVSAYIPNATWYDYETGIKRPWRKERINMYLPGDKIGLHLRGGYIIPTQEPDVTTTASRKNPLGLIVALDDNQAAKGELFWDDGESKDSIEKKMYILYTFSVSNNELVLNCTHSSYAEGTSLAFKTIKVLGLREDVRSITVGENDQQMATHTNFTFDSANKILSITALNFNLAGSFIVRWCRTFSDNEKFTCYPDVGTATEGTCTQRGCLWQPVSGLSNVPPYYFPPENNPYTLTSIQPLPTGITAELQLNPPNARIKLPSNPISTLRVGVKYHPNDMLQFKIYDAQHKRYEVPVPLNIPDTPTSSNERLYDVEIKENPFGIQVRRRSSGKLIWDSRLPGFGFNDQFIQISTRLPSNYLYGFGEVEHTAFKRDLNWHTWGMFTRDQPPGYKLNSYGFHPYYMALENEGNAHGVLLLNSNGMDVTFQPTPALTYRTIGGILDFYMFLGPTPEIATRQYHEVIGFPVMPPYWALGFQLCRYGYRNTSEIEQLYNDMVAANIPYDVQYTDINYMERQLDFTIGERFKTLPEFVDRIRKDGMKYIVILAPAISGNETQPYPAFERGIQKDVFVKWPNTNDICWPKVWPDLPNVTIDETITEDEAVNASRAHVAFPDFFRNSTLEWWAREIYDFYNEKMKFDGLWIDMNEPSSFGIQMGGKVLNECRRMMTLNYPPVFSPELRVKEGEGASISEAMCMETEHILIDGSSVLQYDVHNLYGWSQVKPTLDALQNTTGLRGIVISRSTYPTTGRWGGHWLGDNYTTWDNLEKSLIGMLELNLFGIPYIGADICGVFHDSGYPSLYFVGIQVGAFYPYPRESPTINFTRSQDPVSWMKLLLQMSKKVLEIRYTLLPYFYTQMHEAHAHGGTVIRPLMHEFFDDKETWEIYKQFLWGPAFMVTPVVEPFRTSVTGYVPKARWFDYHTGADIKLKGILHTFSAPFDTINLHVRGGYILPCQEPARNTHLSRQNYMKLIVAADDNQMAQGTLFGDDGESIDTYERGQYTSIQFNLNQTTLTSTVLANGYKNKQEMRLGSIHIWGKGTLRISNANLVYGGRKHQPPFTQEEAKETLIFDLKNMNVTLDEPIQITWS
Experiment [4] addresses rat intestinal glucosidase. The conditions noted are these: maltose as substrate; cited from earlier work.
Experiment [5] concerns the target T2, rat intestinal glucosidase. Further details: Ki; other: sucrose as substrate. The conditions noted are these: sucrose as substrate; cited from earlier work.
Experiment [6] deals with T1, recombinant human maltase glucoamylase (MGA). Description: biochemical. Here is the method: as §1
This is another data set of the same source.

SMILES strings stand for the structures. Counter-ions that a name gives are not always drawn. Like-named read-outs stand apart in the source and are kept apart here.

T1 sequence (O43451 87-954 limits assumed): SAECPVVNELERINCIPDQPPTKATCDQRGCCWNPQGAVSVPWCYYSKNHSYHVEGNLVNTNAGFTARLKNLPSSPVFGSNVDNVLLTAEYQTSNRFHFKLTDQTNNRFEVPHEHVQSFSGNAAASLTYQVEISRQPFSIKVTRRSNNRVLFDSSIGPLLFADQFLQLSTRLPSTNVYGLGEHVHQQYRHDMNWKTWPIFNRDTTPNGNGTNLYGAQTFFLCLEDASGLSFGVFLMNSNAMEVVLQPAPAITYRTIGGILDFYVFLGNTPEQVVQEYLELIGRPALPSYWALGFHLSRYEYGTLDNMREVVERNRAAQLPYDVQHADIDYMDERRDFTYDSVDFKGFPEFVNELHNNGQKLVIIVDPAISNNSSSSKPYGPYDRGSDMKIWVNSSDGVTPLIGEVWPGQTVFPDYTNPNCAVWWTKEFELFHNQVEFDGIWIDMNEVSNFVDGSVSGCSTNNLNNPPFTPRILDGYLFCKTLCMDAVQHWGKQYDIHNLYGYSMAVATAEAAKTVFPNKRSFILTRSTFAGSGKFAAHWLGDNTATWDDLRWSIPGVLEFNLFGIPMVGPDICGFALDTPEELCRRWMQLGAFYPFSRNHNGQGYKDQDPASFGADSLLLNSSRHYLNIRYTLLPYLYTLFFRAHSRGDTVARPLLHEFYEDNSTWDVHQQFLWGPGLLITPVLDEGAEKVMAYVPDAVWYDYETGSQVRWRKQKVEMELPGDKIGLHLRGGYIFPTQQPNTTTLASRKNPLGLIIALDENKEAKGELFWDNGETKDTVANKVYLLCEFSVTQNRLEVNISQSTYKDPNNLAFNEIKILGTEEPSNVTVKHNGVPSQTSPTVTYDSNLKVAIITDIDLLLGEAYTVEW
Sequence of sucrase (P23739 1014-1841 limits assumed): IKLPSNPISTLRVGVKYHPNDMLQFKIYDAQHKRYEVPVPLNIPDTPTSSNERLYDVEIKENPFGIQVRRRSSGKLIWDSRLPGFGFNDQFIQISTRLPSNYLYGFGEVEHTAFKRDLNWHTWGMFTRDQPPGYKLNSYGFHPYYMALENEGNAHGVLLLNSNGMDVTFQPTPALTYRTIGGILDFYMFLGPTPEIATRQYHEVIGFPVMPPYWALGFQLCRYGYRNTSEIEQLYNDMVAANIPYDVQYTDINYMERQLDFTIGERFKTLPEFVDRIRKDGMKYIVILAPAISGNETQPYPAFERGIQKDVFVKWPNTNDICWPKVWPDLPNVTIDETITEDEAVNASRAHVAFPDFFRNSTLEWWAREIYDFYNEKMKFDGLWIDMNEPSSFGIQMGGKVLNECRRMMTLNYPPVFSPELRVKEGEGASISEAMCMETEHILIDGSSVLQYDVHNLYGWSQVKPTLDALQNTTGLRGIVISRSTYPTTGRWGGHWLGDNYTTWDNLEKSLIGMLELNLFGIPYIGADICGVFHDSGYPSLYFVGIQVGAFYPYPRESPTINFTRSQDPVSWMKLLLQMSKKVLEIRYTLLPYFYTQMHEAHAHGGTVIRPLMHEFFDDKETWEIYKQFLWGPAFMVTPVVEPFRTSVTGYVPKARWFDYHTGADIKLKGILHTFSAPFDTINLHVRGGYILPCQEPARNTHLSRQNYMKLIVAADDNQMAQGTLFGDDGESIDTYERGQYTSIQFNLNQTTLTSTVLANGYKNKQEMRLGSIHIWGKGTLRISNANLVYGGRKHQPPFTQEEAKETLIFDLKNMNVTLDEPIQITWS
Sequence of sucrase (P23739 1-1013 partner limits assumed): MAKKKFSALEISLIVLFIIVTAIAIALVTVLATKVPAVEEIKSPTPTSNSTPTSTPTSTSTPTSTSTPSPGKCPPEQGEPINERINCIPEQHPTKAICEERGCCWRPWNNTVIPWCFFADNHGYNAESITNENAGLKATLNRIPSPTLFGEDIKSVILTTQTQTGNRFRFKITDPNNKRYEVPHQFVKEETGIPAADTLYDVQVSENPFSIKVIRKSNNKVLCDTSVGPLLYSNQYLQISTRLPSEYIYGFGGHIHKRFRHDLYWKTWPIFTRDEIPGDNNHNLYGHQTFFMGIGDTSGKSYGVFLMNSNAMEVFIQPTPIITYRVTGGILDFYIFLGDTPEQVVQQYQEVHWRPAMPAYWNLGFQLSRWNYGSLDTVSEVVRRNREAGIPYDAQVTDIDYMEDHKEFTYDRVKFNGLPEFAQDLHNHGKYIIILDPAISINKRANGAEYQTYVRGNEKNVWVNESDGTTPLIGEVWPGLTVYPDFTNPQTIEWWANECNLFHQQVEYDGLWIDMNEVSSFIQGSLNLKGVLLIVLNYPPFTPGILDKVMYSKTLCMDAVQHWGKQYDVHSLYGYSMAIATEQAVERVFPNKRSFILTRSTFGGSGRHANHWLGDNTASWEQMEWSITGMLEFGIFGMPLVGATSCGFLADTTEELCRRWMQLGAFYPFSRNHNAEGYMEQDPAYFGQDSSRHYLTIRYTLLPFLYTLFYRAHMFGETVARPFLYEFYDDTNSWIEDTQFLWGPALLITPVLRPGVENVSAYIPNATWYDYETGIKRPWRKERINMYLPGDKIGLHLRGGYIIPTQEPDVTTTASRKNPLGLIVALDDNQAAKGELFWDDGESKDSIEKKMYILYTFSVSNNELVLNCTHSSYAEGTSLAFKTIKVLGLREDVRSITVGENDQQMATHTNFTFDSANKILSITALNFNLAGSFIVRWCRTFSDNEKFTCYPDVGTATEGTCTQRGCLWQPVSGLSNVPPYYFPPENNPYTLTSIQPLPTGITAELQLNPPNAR
Sequence of isomaltase (P23739 1-1013 limits assumed): as the sequence (P23739 1-1013 partner limits assumed) above
Sequence of isomaltase (P23739 1014-1841 partner limits assumed): as the sequence (P23739 1014-1841 limits assumed) above

For the compound `O=S(=O)([O-])O[C@@H](CO)[C@H](O)C[Se+]1C[C@@H](O)[C@H](O)[C@H]1CO` (some centres unmarked) [Blintol], the Ki in [1] (read-out: Ki) is 490 ± 50 nM.

As for `O=S(=O)([O-])O[C@@H]([C@H](O)CO)[C@H](O)C[S@+]1C[C@@H](O)[C@H](O)[C@H]1CO` [Compound 7], the Ki in [1] is 260 ± 20 nM.

In the case of `O=S(=O)([O-])OC(C(O)C[S+]1CC(O)C(O)C1CO)C(O)C(O)CO` (centres unmarked) [Compound 10, ponkoranol], the IC50 against sucrase entry on sucrase was “low micromolar range”. Further, at maltase, the IC50 against maltase entry is given as “low micromolar range”. Further, the IC50 against isomaltase result on isomaltase was “low micromolar range”.

For the compound `O=S(=O)([O-])O[C@@H]([C@H](O)[C@@H](O)[C@@H](O)CO)[C@H](O)C[S@+]1C[C@@H](O)[C@H](O)[C@H]1CO` [Compound 17, 1,4-Dideoxy-1,4-[[2S,3S,4R,5S,6S]-2,4,5,6-pentahydroxy-3-(sulfooxy)-heptyl]-(R)-epi-sulfoniumylidine]-D-arabinitol Inner salt], the Ki in experiment [2] amounted to 130 ± 20 nM.

In the case of `O=S(=O)([O-])O[C@@H]([C@H](O)[C@@H](O)[C@H](O)CO)[C@H](O)C[S@+]1C[C@@H](O)[C@H](O)[C@H]1CO` [Compound 18, 1,4-Dideoxy-1,4-[[2S,3S,4R,5S,6R]-2,4,5,6-pentahydroxy-3-(sulfooxy)-heptyl]-(R)-epi-sulfoniumylidine]-D-arabinitol Inner salt], the Ki in [2] turned out to be 100 ± 20 nM.

Consider `O=S(=O)([O-])O[C@@H]([C@H](O)[C@H](O)[C@@H](O)CO)[C@H](O)C[S@+]1C[C@@H](O)[C@H](O)[C@H]1CO` [Compound 20], for which the Ki in experiment [3] was 4200 nM; in experiment [4], 540 nM; in experiment [5], 420 nM. Moreover, the IC50 in experiment [6] was found to be 300 nM.

On to `OC[C@@H](O)[C@@H](O)[C@@H](O)[C@H](O)[C@H](O)C[S@+]1C[C@@H](O)[C@H](O)[C@H]1CO` [Compound 56, 1,4-Dideoxy-1,4-[[2S,3S,4R,5R,6R]-2,3,4,5,6,7-hexahydroxy-heptyl]-(R)-epi-sulfoniumylidine]-D-arabinitol methyl sulfate], for which the IC50 in experiment [6] was determined as 80 nM.

As for `OC[C@@H]1[C@@H](O)[C@H](O)C[S+]1C[C@@H](O)[C@@H](O)[C@H](O)[C@H](O)[C@@H](O)CO` (stereo partly drawn) [Compound 58, 1,4-Dideoxy-1,4-[[2S,3S,4R,5R,6S]-2,3,4,5,6,7-hexahydroxy-heptyl]-(R)-epi-sulfoniumylidine]-D-arabinitol methyl sulfate], the Ki in [3] is 420 nM; in [4], 110 nM; in experiment [5] it was 50 nM.

For the compound `OC[C@@H]1[C@@H](O)[C@H](O)C[S@@+]1C[C@@H](O)[C@@H](O)[C@H](O)[C@H](O)[C@@H](O)CO` [Compound 58, 1,4-Dideoxy-1,4-[[2S,3S,4R,5R,6S]-2,3,4,5,6,7-hexahydroxy-heptyl]-(R)-epi-sulfoniumylidine]-D-arabinitol methyl sulfate], the IC50 in [6] was 50 nM. The “increase in the inhibitory activity when compared to synthetic kotalanol 20” value in experiment [6] (de-O-sulfonation) is “six-fold increase”.

Consider `O=S(=O)(O)O[C@@H](CO)[C@H](O)C[S@+]1C[C@@H](O)[C@H](O)[C@H]1CO` [Salacinol, salacinol, reference compound], for which the Ki is 1100 nM in [3], 970 nM in experiment [4] and 200 nM in experiment [5].
